Experimental data published in ChEMBL document CHEMBL3045033, “Synthesis of new potential anticancer agents based on 4-thiazolidinone and oleanane scaffolds” (Med Chem Res, 2012).

Columns and labels:
Format in all cases: functional
T47D = test: Cytotoxicity against Homo sapiens (human) T47D cells assessed as cellular growth at 10^-5 M after 48 hr by SRB assay relative to untreated control
SR = test: Cytotoxicity against Homo sapiens (human) SR cells assessed as cellular growth at 10^-5 M after 48 hr by SRB assay relative to untreated control
PC-3 = test: Cytotoxicity against Homo sapiens (human) PC3 cells assessed as cellular growth at 10^-5 M after 48 hr by SRB assay relative to untreated control
CCRF-CEM = test: Cytotoxicity against Homo sapiens (human) CCRF-CEM cells assessed as cellular growth at 10^-5 M after 48 hr by SRB assay relative to untreated control
BT-549 = test: Cytotoxicity against Homo sapiens (human) BT549 cells assessed as cellular growth at 10^-5 M after 48 hr by SRB assay relative to untreated control
SF-295 = test: Cytotoxicity against Homo sapiens (human) SF295 cells assessed as cellular growth at 10^-5 M after 48 hr by SRB assay relative to untreated control
IGROV-1 = test: Cytotoxicity against Homo sapiens (human) IGROV1 cells assessed as cellular growth at 10^-5 M after 48 hr by SRB assay relative to untreated control
K562 = test: Cytotoxicity against Homo sapiens (human) K562 cells assessed as cellular growth at 10^-5 M after 48 hr by SRB assay relative to untreated control
HL-60(TB) = test: Cytotoxicity against Homo sapiens (human) HL-60(TB) cells assessed as cellular growth at 10^-5 M after 48 hr by SRB assay relative to untreated control
RPMI-8226 = test: Cytotoxicity against Homo sapiens (human) RPMI8226 cells assessed as cellular growth at 10^-5 M after 48 hr by SRB assay relative to untreated control
COLO 205 = test: Cytotoxicity against Homo sapiens (human) COLO205 cells assessed as cellular growth at 10^-5 M after 48 hr by SRB assay relative to untreated control
SK-OV-3 = test: Cytotoxicity against Homo sapiens (human) SKOV3 cells assessed as cellular growth at 10^-5 M after 48 hr by SRB assay relative to untreated control

For `COC(=O)[C@]12CCC(C)(C)C[C@H]1C1=CC[C@@H]3[C@@]4(C)CCC(=O)C(C)(C)[C@@H]4CC[C@@]3(C)[C@]1(C)CC2`, the Activity (T47D) was 75.65%, the Activity (SR) was 63.87% and the Activity (PC-3) was 85.25%.
Work on `COC(=O)[C@]12CCC(C)(C)C[C@H]1C1=CC[C@@H]3[C@@]4(C)CC/C(=N\OC(=O)CN5C(=O)CSC5=S)C(C)(C)[C@@H]4CC[C@@]3(C)[C@]1(C)CC2` yielded an Activity (CCRF-CEM) of 56.34%.
Work on `COC(=O)[C@]12CCC(C)(C)C[C@H]1C1=CC[C@@H]3[C@@]4(C)CC/C(=N\OC(=O)CCCCCN5C(=O)CSC5=S)C(C)(C)[C@@H]4CC[C@@]3(C)[C@]1(C)CC2` yielded an Activity (T47D) of 76.91% and an Activity (SR) of 42.83%.
In the case of `COC(=O)[C@]12CCC(C)(C)C[C@H]1C1=CC[C@@H]3[C@@]4(C)CC/C(=N\OC(=O)CN5C(=O)/C(=C/c6ccc(OC)cc6)SC5=S)C(C)(C)[C@@H]4CC[C@@]3(C)[C@]1(C)CC2`, the Activity (BT-549) is reported as 67.36% and the Activity (SF-295) is reported as 72.97%.
For `COC(=O)[C@]12CCC(C)(C)C[C@H]1C1=CC[C@@H]3[C@@]4(C)CC/C(=N\OC(=O)CCN5C(=O)/C(=C/c6ccc(N(C)C)cc6)SC5=S)C(C)(C)[C@@H]4CC[C@@]3(C)[C@]1(C)CC2`, the Activity (IGROV-1) was 82.21%.
Compound `CC1(C)CC[C@]2(C(=O)O)CC[C@]3(C)C(=CC[C@@H]4[C@@]5(C)CC/C(=N\OC(=O)CC6SC(=O)NC6=O)C(C)(C)[C@@H]5CC[C@]43C)[C@@H]2C1` (some centres undefined) has an Activity (K562) of 54.55% and an Activity (SR) of 54.18%.
In the case of `CC1(C)CC[C@]2(C(=O)N3CCOCC3)CC[C@]3(C)C(=CC[C@@H]4[C@@]5(C)CC/C(=N\OC(=O)CC6SC(=O)NC6=O)C(C)(C)[C@@H]5CC[C@]43C)[C@@H]2C1` (some centres undefined), the Activity (HL-60(TB)) is reported as 42.47%, the Activity (RPMI-8226) is reported as 21.46% and the Activity (T47D) is reported as 29.41%. For the same compound, the Activity (SR) was 48.74%.
With `CC1(C)CC[C@@]23CC[C@]4(C)[C@@](OC2=O)([C@@H]3C1)[C@@H](Br)C[C@@H]1[C@@]2(C)CC/C(=N\OC(=O)/C=C3/SC(=O)NC3=O)C(C)(C)[C@@H]2CC[C@]14C` the Activity (HL-60(TB)) was 26.14%, the Activity (RPMI-8226) was 26.82% and the Activity (T47D) was 24.85%. The Activity (K562) was 27.12% and the Activity (SR) was 29.41%.
In the case of `CC1(C)CC[C@@]23CC[C@]4(C)[C@@](OC2=O)([C@@H]3C1)[C@@H](Br)C[C@@H]1[C@@]2(C)CCC(=O)C(C)(C)[C@@H]2CC[C@]14C`, the Activity (COLO 205) is reported as 302.68%, the Activity (SF-295) is reported as 270.75% and the Activity (SK-OV-3) is reported as 335.31%. The Activity (K562) was 78.11%.
